Counter-ions that a name gives are not always drawn.
Experiments:
Test in all cases: EC50 assay: Ba/F3 stable cell proliferation (CCK-8, 72 h)
Assay type in all cases: cell-based
Ba/F3 stable cells [1] = target: T1, Ba/F3 stable cells (Homo sapiens, UniProt P00533, DUP767-769, cells depend on it); conditions: Ba/F3-EGFR V769-D770insASV cells
T1 construct: EC50 Ba/F3-EGFR V769-D770insASV; other: Ba/F3-EGFR V769-D770insASV cells, 72 h, CCK-8
Method in brief: (§1)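 Ba/F3 stable cells were seeded at 4,000 cells/90 μL/well in 96-well plates and held 2 h at 37° C. in 5% CO2, then given 10 μL of serially titrated compound (0.1% DMSO final). After 72 h at 37° C., CCK-8 reagent was added for 4 hours and absorbance read at 450 nm to derive EC50.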

Ba/F3 stable cells [2] = target: T2, Ba/F3 stable cells (Homo sapiens, UniProt P00533, DUP768-770, cells depend on it); conditions: Ba/F3-EGFR D770-N771insSVD cells
T2 construct: EC50 Ba/F3-EGFR D770-N771insSVD; other: Ba/F3-EGFR D770-N771insSVD cells, 72 h, CCK-8
T2 sequence (P00533 with tags, fused parts or gaps DUP768-770): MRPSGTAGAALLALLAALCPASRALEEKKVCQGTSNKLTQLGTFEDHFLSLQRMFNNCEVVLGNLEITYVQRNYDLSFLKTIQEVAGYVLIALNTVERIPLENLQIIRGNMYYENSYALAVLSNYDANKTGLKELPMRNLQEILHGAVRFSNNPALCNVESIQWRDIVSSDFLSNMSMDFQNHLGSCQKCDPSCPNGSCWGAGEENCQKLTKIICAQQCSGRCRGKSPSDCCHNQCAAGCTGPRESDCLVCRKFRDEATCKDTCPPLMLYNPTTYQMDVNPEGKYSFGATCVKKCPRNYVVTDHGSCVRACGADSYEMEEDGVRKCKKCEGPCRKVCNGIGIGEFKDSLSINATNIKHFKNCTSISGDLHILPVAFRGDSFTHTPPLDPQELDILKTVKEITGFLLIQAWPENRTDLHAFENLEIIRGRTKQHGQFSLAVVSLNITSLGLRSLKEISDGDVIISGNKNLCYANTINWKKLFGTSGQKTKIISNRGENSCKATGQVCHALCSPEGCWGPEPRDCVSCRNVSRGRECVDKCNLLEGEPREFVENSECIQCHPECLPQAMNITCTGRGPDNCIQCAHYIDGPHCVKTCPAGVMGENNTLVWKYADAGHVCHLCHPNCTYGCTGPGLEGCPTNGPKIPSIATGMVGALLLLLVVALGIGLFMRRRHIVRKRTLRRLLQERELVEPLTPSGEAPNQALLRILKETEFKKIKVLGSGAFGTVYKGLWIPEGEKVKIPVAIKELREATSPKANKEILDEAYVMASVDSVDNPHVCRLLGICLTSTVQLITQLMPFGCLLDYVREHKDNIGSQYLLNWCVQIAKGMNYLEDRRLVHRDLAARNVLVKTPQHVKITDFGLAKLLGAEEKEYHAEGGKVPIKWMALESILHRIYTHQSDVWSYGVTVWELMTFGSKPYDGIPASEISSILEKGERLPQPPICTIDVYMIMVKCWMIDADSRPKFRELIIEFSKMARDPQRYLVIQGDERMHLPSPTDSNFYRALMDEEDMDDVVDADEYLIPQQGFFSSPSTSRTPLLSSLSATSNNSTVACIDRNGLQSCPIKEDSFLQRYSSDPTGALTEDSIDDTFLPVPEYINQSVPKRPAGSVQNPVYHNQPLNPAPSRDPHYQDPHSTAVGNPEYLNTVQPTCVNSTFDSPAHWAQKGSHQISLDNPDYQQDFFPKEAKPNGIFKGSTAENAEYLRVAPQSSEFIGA
Method in brief: as §1

Ba/F3 stable cells [3] = target: T3, Ba/F3 stable cells (Homo sapiens, UniProt P00533, DUP771-773, cells depend on it); conditions: Ba/F3-EGFR H773-V774insNPH cells
T3 construct: EC50 Ba/F3-EGFR H773-V774insNPH; other: Ba/F3-EGFR H773-V774insNPH cells, 72 h, CCK-8
T3 sequence (P00533 with tags, fused parts or gaps DUP771-773): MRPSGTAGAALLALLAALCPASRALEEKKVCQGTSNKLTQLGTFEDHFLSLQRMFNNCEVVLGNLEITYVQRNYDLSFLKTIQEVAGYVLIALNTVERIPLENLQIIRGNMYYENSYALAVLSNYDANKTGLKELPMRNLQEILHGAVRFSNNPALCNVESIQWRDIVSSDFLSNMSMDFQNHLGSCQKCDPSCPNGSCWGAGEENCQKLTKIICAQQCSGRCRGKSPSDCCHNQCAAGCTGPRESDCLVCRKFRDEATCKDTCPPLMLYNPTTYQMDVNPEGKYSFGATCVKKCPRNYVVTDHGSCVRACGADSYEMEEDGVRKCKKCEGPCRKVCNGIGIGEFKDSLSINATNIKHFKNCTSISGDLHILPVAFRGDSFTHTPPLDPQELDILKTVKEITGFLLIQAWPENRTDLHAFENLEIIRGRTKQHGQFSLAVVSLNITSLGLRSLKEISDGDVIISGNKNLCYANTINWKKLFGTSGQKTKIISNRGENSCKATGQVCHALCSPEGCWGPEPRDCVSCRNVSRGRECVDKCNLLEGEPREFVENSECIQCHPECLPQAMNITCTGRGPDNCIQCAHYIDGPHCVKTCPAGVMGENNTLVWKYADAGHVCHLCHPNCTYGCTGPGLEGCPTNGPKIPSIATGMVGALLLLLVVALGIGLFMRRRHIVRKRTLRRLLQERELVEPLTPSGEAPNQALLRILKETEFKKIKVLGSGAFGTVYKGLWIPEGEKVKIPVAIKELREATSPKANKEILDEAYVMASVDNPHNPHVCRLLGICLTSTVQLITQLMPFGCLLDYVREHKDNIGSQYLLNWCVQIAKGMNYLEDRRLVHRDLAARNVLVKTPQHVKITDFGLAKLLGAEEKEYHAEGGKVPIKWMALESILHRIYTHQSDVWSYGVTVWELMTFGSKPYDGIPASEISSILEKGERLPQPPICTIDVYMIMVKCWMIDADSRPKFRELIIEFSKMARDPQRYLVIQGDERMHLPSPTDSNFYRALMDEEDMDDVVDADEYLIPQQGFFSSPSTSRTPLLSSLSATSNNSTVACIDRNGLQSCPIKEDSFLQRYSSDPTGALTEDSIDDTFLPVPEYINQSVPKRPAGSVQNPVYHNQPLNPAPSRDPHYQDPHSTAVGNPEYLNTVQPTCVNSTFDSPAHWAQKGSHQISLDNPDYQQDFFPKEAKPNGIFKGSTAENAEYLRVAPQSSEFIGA
Method in brief: as §1

Ba/F3 stable cells [4] = target: T4, Ba/F3 stable cells (Homo sapiens, UniProt P00533, INS763FQEA, cells depend on it); conditions: Ba/F3-EGFR A763-Y764insFQEA cells
T4 construct: EC50 Ba/F3-EGFR A763-Y764insFQEA; other: Ba/F3-EGFR A763-Y764insFQEA cells, 72 h, CCK-8
Method in brief: as §1

Ba/F3 stable cells [5] = target: T5, Ba/F3 stable cells (Homo sapiens, UniProt P00533, T790M/L858R, cells depend on it); conditions: Ba/F3-EGFR L858R-T790M cells
T5 construct: EC50 Ba/F3-EGFR L858R-T790M; other: Ba/F3-EGFR L858R-T790M cells, 72 h, CCK-8
T5 sequence (P00533 whole entry T790M/L858R): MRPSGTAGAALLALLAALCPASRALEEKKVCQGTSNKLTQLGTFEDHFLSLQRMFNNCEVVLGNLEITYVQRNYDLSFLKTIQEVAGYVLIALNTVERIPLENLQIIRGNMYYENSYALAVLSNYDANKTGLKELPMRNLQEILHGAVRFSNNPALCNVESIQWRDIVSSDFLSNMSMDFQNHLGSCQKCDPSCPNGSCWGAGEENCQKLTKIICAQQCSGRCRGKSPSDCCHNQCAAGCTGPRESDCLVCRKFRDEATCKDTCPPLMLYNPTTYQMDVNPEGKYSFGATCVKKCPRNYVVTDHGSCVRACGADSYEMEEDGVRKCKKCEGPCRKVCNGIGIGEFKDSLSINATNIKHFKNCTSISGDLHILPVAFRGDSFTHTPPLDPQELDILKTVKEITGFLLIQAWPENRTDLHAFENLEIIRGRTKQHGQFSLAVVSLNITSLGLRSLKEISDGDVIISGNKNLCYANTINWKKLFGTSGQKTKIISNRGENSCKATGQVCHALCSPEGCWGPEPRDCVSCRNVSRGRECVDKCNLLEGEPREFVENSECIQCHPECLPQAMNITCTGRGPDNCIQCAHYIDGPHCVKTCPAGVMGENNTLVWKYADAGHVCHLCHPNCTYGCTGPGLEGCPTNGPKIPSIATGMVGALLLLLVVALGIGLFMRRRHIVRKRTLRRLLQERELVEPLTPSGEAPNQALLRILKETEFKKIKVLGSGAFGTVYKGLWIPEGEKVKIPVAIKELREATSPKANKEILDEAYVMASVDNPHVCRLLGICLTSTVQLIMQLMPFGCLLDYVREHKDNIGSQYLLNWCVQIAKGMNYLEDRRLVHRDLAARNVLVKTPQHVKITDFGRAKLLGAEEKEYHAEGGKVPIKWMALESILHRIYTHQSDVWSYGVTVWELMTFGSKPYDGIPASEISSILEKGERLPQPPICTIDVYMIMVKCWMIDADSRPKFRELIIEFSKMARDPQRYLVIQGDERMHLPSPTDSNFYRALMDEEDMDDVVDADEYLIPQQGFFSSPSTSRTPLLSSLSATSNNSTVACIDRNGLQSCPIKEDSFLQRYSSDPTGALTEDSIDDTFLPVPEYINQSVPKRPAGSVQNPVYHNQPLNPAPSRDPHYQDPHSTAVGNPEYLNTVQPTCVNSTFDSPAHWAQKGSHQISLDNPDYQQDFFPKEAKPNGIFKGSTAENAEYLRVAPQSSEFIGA
Method in brief: as §1

Ba/F3 stable cells [6] = target: T6, Ba/F3 stable cells (Homo sapiens, UniProt P04626, DUP772-775, cells depend on it); conditions: Ba/F3-HER2 A775-G776insYVMA cells
T6 construct: EC50 Ba/F3-HER2 A775-G776insYVMA; other: Ba/F3-HER2 A775-G776insYVMA cells, 72 h, CCK-8
T6 sequence (P04626 with tags, fused parts or gaps DUP772-775): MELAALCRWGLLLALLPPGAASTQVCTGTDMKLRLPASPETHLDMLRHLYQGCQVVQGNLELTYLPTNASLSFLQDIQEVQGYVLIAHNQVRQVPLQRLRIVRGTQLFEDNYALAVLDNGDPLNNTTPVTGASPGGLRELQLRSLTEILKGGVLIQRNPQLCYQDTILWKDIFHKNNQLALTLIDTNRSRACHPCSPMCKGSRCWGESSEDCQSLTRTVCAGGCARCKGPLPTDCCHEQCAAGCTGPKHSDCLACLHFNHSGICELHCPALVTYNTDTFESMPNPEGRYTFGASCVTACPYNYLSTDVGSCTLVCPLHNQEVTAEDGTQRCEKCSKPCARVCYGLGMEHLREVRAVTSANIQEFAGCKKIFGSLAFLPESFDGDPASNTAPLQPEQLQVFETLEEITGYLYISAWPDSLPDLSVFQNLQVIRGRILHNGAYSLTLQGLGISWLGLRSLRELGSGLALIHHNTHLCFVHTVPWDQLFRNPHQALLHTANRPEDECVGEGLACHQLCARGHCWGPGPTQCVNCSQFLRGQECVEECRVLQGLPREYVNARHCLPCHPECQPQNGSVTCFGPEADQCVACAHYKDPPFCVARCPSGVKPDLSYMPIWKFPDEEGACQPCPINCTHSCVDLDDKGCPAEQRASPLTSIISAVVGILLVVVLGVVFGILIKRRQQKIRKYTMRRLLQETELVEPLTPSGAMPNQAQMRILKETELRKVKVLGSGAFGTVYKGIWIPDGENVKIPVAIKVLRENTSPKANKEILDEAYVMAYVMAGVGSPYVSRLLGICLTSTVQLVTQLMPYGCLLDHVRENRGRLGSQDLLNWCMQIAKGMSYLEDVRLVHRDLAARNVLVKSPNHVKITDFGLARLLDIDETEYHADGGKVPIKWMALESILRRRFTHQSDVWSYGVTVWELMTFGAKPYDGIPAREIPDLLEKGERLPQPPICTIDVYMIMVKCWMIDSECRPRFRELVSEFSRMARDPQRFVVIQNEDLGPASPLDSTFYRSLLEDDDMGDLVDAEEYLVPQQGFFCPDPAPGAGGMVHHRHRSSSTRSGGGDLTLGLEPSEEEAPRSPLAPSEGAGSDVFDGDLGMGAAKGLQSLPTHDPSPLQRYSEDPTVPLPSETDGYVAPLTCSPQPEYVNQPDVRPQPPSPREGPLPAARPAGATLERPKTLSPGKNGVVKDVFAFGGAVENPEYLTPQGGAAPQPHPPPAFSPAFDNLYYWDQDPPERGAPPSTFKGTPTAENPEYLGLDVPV
Method in brief: as §1

SMILES	EC50 (Ba/F3 stable cells [1])	EC50 (Ba/F3 stable cells [2])	EC50 (Ba/F3 stable cells [3])	EC50 (Ba/F3 stable cells [4])	EC50 (Ba/F3 stable cells [5])	EC50 (Ba/F3 stable cells [6])
COc1cc2ncnc(Nc3ccc(Cl)c(Cl)c3F)c2cc1C1CN(C#N)C1 [Compound 195, 3-(4-((3,4-dichloro-2-fluorophenyl)amino)-7-methoxy-quinazolin-6-yl)azetidine-1-carbonitrile]	> 1 µM	> 1 µM	> 1 µM	0.2 to 1 µM	0.2 to 1 µM	0.2 to 1 µM
COc1cc2ncnc(Nc3ccc(Cl)c(Cl)c3F)c2cc1C1=CCCN(C#N)C1 [Compound 197, 5-(4-((3,4-dichloro-2-fluorophenyl)amino)-7-methoxy-quinazolin-6-yl)-3,6-dihydropyridine-1(2H)-carbonitrile]	> 1 µM	> 1 µM	> 1 µM	0.2 to 1 µM	> 1 µM	> 1 µM
C=CC(=O)N1CCC(Oc2c(OC)cc3ncnc4c3c2N(C)C(=O)N4c2ccc(Cl)c(Cl)c2F)CC1 [Compound 200, 9-((1-acryloylpiperidin-4-yl)oxy)-3-(3,4-dichloro-2-fluorophenyl)-8-methoxy-1-methyl-1H-pyrimido[4,5,6-de]quinazolin-2(3H)-one]	0.2 to 1 µM	> 1 µM	0.2 to 1 µM	≤ 0.2 µM	> 1 µM	> 1 µM
C=CC(=O)N1CCC(Oc2c(OC)cc3ncnc4c3c2NC(=O)N4c2ccc(Cl)c(Cl)c2F)C1 (stereo not drawn) [Compound 205, 9-((1-acryloylpyrrolidin-3-yl)oxy)-3-(3,4-dichloro-2-fluorophenyl)-8-methoxy-1H-pyrimido[4,5,6-de]quinazolin-2(3H)-one]	> 1 µM	> 1 µM	> 1 µM	0.2 to 1 µM	> 1 µM	> 1 µM
C=CC(=O)N1CC=C(c2c(OC)cc3ncnc4c3c2N(C)C(=O)N4c2ccc(Cl)c(Cl)c2F)CC1 [Compound 206, 9-(1-acryloyl-1,2,3,6-tetrahydropyridin-4-yl)-3-(3,4-dichloro-2-fluorophenyl)-8-methoxy-1-methyl-1H-pyrimido[4,5,6-de]quinazolin-2(3H)-one]	0.2 to 1 µM	> 1 µM	> 1 µM	≤ 0.2 µM	> 1 µM	0.2 to 1 µM
COc1cc2ncnc(Nc3ccc(Cl)c(Cl)c3F)c2c([N+](=O)[O-])c1OC1CCNCC1 [Compound 207, N-(3,4-dichloro-2-fluorophenyl)-7-methoxy-5-nitro-6-(piperidin-4-yloxy)quinazolin-4-amine hydrochloride]	0.2 to 1 µM	> 1 µM	0.2 to 1 µM	≤ 0.2 µM	0.2 to 1 µM	0.2 to 1 µM
C=CC(=O)N1CCC(Oc2c(OC)cc3ncnc(Nc4ccc(Cl)c(Cl)c4F)c3c2[N+](=O)[O-])CC1 [Compound 208, 1-(4-((4-((3,4-dichloro-2-fluorophenyl)amino)-7-methoxy-5-nitroquinazolin-6-yl)oxy)piperidin-1-yl)prop-2-en-1-one]	> 1 µM	> 1 µM	> 1 µM	0.2 to 1 µM	> 1 µM	> 1 µM
C=CC(=O)N1CCC(Oc2c(OC)cc3ncnc4c3c2NC(=O)N4c2ccc(Cl)c(Cl)c2)CC1 [Compound 215, 9-((1-acryloylpiperidin-4-yl)oxy)-3-(3,4-dichlorophenyl)-8-methoxy-1H-pyrimido[4,5,6-de]quinazolin-2(3H)-one]	> 1 µM	> 1 µM	> 1 µM	≤ 0.2 µM	> 1 µM	> 1 µM
C=CS(=O)(=O)N1CCC(Oc2c(OC)cc3ncnc4c3c2NC(=O)N4c2ccc(Cl)c(Cl)c2)CC1 [Compound 226, 3-(3,4-dichlorophenyl)-8-methoxy-9-((1-(vinylsulfonyl)piperidin-4-yl)oxy)-1H-pyrimido[4,5,6-de]quinazolin-2(3H)-one]	0.2 to 1 µM	0.2 to 1 µM	≤ 0.2 µM	≤ 0.2 µM	≤ 0.2 µM	≤ 0.2 µM

Further lines, results first:

EC50 (Ba/F3 stable cells [1])	EC50 (Ba/F3 stable cells [2])	EC50 (Ba/F3 stable cells [3])	EC50 (Ba/F3 stable cells [4])	EC50 (Ba/F3 stable cells [5])	EC50 (Ba/F3 stable cells [6])	SMILES
≤ 0.2 µM	> 1 µM	≤ 0.2 µM	≤ 0.2 µM	≤ 0.2 µM	0.2 to 1 µM	C=CS(=O)(=O)N1CCC(Oc2cc3c(Nc4ccc(Cl)c(Cl)c4F)ncnc3cc2OC)CC1 [Compound 192, N-(3,4-dichloro-2-fluorophenyl)-7-methoxy-6-((1-(vinylsulfonyl)piperidin-4-yl)oxy)quinazolin-4-amine]
0.2 to 1 µM	> 1 µM	0.2 to 1 µM	≤ 0.2 µM	0.2 to 1 µM	> 1 µM	C=CS(=O)(=O)N1CCC(Oc2cc3c(C(=O)c4ccc(Cl)c(Cl)c4F)ncnc3cc2OC)CC1 [Compound 193, (3,4-dichloro-2-fluorophenyl)(7-methoxy-6-((1-(vinylsulfonyl)piperidin-4-yl)oxy)quinazolin-4-yl)methanone]
≤ 0.2 µM	> 1 µM	0.2 to 1 µM	≤ 0.2 µM	> 1 µM	> 1 µM	COc1cc2ncnc(Nc3ccc(Cl)c(Cl)c3F)c2cc1OC1CCN(C#N)CC1 [Compound 194, 4-((4-((3,4-dichloro-2-fluorophenyl)amino)-7-methoxyquinazolin-6-yl)oxy)piperidine-1-carbonitrile]
≤ 0.2 µM	0.2 to 1 µM	0.2 to 1 µM	≤ 0.2 µM	> 1 µM	0.2 to 1 µM	COc1cc2ncnc(Nc3ccc(Cl)c(Cl)c3F)c2cc1OC1CC(N(C)C#N)C1 (stereo not drawn) [Compound 196, N-(3-((4-((3,4-dichloro-2-fluorophenyl)amino)-7-methoxy-quinazolin-6-yl)oxy)cyclobutyl)-N-methylcyanamide]
0.2 to 1 µM	> 1 µM	0.2 to 1 µM	≤ 0.2 µM	> 1 µM	> 1 µM	COc1cc2ncnc(Nc3ccc(Cl)c(Cl)c3F)c2cc1OC1CCCN(C#N)C1 (stereo not drawn) [Compound 198, 3-((4-((3,4-dichloro-2-fluorophenyl)amino)-7-methoxy-quinazolin-6-yl)oxy)piperidine-1-carbonitrile]
0.2 to 1 µM	0.2 to 1 µM	0.2 to 1 µM	≤ 0.2 µM	0.2 to 1 µM	0.2 to 1 µM	C=CC(=O)N1CCC(Oc2c(OC)cc3ncnc4c3c2NC(=O)N4c2ccc(Cl)c(Cl)c2F)CC1 [Compound 199, 9-((1-acryloylpiperidin-4-yl)oxy)-3-(3,4-dichloro-2-fluorophenyl)-8-methoxy-1H-pyrimido[4,5,6-de]quinazolin-2(3H)-one]
≤ 0.2 µM	≤ 0.2 µM	≤ 0.2 µM	≤ 0.2 µM	≤ 0.2 µM	> 1 µM	C=CC(=O)N1CC(Oc2c(OC)cc3ncnc4c3c2NC(=O)N4c2ccc(Cl)c(Cl)c2F)C1 [Compound 216, 9-((1-acryloylazetidin-3-yl)oxy)-3-(3,4-dichloro-2-fluorophenyl)-8-methoxy-1H-pyrimido[4,5,6-de]quinazolin-2(3H)-one]
≤ 0.2 µM	0.2 to 1 µM	0.2 to 1 µM	≤ 0.2 µM	0.2 to 1 µM	> 1 µM	C=CC(=O)N1CCC(Oc2c(OC)cc3ncnc4c3c2C=C(C)N4c2ccc(Cl)c(Cl)c2F)CC1 [Compound 217, 1-(4-((4-(3,4-dichloro-2-fluorophenyl)-8-methoxy-5-methyl-4H-pyrido[2,3,4-de]quinazolin-7-yl)oxy)piperidin-1yl)prop-2-en-1-one]
≤ 0.2 µM	0.2 to 1 µM	≤ 0.2 µM	≤ 0.2 µM	0.2 to 1 µM	> 1 µM	C=CC(=O)N1CCC(Oc2c(OC)cc3ncnc4c3c2C=CN4c2ccc(Cl)c(Cl)c2F)CC1 [Compound 218, 1-(4-((4-(3,4-dichloro-2-fluorophenyl)-8-methoxy-4H-pyrido[2,3,4-de]quinazolin-7-yl)oxy)piperidin-1-yl)prop-2-en-1-one]
≤ 0.2 µM	≤ 0.2 µM	≤ 0.2 µM	≤ 0.2 µM	≤ 0.2 µM	> 1 µM	C=CS(=O)(=O)N1CCC(Oc2c(OC)cc3ncnc4c3c2NC(=O)N4c2ccc(Cl)c(Cl)c2F)CC1 [Compound 225, 3-(3,4-dichloro-2-fluorophenyl)-8-methoxy-9-((1-(vinylsulfonyl)piperidin-4-yl)oxy)-1H-pyrimido[4,5,6-de]quinazolin-2(3H)-one]

— patent publication US20250243171A1, “QUINAZOLINE COMPOUNDS FOR TREATMENT OF DISEASE” (Arthrosi Therapeutics, Inc., priority 2021, published 2025)
